Legend:
[1] = cited from earlier work
DH5α = assay: Growth rate from exponential phase (OD550 over time); assay type: cell-based, E. coli; settings: media containing 0-2 μM triclosan
Protocol: Growth rate was calculated from the exponential phase of growth, which was monitored as increased OD550 over time by the VERSAmax spectrophotometer (Molecular Devices). An overnight culture (16 h), standardized by OD550 to yield approximately 7×10^5 cfu/ml, was grown in 200 μl volumes per well in a 96-well plate for 24 h with agitation for 5 s every 5 min, when OD550 readings were taken. Triclosan dissolved in DMSO was added to give 0-2 μM Triclosan and 1% DMSO final concentrations.

DH5α/pFab = assay: Cell viability, SYTOX green staining flow cytometry; assay type: cell-based, E. coli; settings: 0.5-2 μM triclosan, overnight culture
Protocol: DH5α/pFab were grown overnight in the absence or presence of 0.5-2 μM triclosan and subjected to SYTOX green staining flow cytometry, as previously described (Roth et al. 1997). DH5α/pUC19 was included as a control for green fluorescence of live and heat-treated dead cells. Samples were excited with a 488 nm air-cooled argon ion laser in the CyFlow SL flow cytometer (Partec GmbH). Threshold settings were enabled on forward scatter to exclude cell debris. The forward and side scatter dot plot was used to identify and gate cell populations. Fluorescence was measured at 520 nm Viable and dead cell populations were counted using the Partec FloMax software version 2.4e.

For Oc1cc(Cl)ccc1Oc1ccc(Cl)cc1Cl [triclosan], the Solubility in water [1] is given as “poor solubility in water”, the “Triclosan concentration at which growth rates of pUCFA and pFab clones were highest” value (DH5α) is given as 1 μM and the “Proportion of green fluorescent (dead) cells in DH5α/pFab culture” value (DH5α/pFab) is given as “decreased with increasing triclosan concentrations”.

From patent US20100278847A1, “MUTUALLY SUPPRESSIVE GENE/INHIBITOR COMBINATIONS FOR NON-ANTIBIOTIC SELECTION OF RECOMBINANT STRAINS” (priority 2007, published 2010)
